Measurements reported in patent publication US20220323406A1, “METHODS AND COMPOSITIONS FOR DIFFERENTIATING STEM CELLS” (Massachusetts Institute of Technology, priority 2019, published 2022).
Entries after “also recorded” stand apart in the source; their conditions may differ. Like-named read-outs stand apart in the source and are kept apart here.

Tests used:
[1] = tested on: 3D-cultured intestinal organoids (ENR or ENR+CD); assay: Lysozyme secretion assay (3D culture), normalized to ATP; assay type: cell-based, mouse; conditions: 6-day ENR+CD differentiation; for Paneth cell differentiation (functional LYZ secretion), in combination with KPT-330: with KPT-330 (160 nM)
Description: Lysozyme assay (3D culture). ISC-enriched organoids cultured in 3D Matrigel with ENRCV media were passaged to 48-well plate in 3D Matrigel with ENRCV. At day zero, media were replaced to ENR or ENRCD with or without indicated compounds, and media were replaced every other day. At day six, cells were washed twice with basal media and treated with carbamylcholine chloride (Sigma, C4382) for 3 hours. Media were collected and lysozyme activity was measured by EnzChek Lysozyme Assay Kit (ThermoFisher, E22013).
Lysozyme secretion assay. ISC-enriched organoids in 3D Matrigel culture were passaged to a 48- or 96-well plate and cultured with ENR or ENR+CD media containing DMSO or each drug for 6 days. DMSO- or drug-containing media were changed every other day. On day 6, cells were washed with basal media twice and treated with basal media with or without 10 μM carbamoylcholine chloride for 3 h in a CO2 incubator at 37° C. A part of the conditioned media was collected and used for lysozyme assay (Thermo, E-22013) following the manufacturer's instruction. The fluorescence was measured using excitation/emission of 485/530 nm. CellTiter-Glo 3D Reagent (Promega, G9681) was added afterward, and the cell culture plate was incubated on an orbital shaker at RT for 30 min to induce cell lysis and to stabilize the luminescent signal. The solution was replaced to a 96-well white microplate, and luminescent signals were measured by a microplate reader (infinite M200, Tecan). The standard curve was prepared by diluting recombinant ATP (Promega, P1132). For both assays, a polynomial cubic curve was fitted to a set of standard data, and each sample value was calculated on the Microsoft Excel.

[2] = tested on: ENR+CD organoids (ISC to Paneth cell differentiation); assay: Primary screen: basal (non-stimulated) lysozyme secretion LYZ.NS, 2.5-D 384-well ENR+CD organoid differentiation; assay type: cell-based, mouse; conditions: for primary screen hit call (SSMD and z-scored FC cutoffs in both LYZ assays): LYZ.NS and LYZ.S, 0.08-10 uM, 6 days ENR+CD; for Dose.FC.LYZ.NS / Z.LYZ.NS (standard z score): primary screen
Description: (§1) High-throughput screening.

ENR+CD organoids [3] = assay: Secondary (validation) screen: ATP (CTG) assay, 2.5-D 384-well ENR+CD organoids; assay type: cell-based, mouse; conditions: 6-day ENR+CD, vs ENR+CD+DMSO
[4] = tested on: ENR+CD organoids (ISC to Paneth cell differentiation); assay: Primary screen: CCh-stimulated lysozyme secretion LYZ.S, 2.5-D 384-well ENR+CD organoid differentiation; assay type: cell-based, mouse; conditions: primary screen
Description: as §1

[5] = tested on: ENR+CD organoids (ISC to Paneth cell differentiation); assay: Secondary (validation) screen: LYZ.S CCh-stimulated lysozyme secretion, 2.5-D 384-well ENR+CD organoids; assay type: cell-based, mouse; conditions: 6-day ENR+CD, vs ENR+CD+DMSO
[6] = tested on: ENR+CD organoids (ISC to Paneth cell differentiation); assay: Secondary (validation) screen: LYZ.NS basal lysozyme secretion, 2.5-D 384-well ENR+CD organoids; assay type: cell-based, mouse; conditions: 6-day ENR+CD, vs ENR+CD+DMSO
ENR+CD organoids [7] = conditions: primary screen
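Throughout, for Z.CTG (standard z score): compounds given at plating and again on day 3 over a 6-day differentiation from ENR+CV stem-cell-enriched precursors, ATP measured on day 6, plate median as control.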

## O=C(c1ccc(F)c(F)c1Nc1ccc(I)cc1F)N1CC(O)([C@@H]2CCCCN2)C1 [cobimetinib]
[1]
  Paneth cell differentiation (functional LYZ secretion), compound alone: did not significantly alter Paneth cell differentiation
  Paneth cell differentiation (functional LYZ secretion), in combination with KPT-330: differentiation was enhanced; also recorded: significantly enhance Paneth cell differentiation

## COc1cc2c(Nc3ccc(NC(=O)c4ccccc4)cc3)ncnc2cc1OCCCN1CCOCC1 [ZM447439, reference compound]
[1]
  Paneth cell differentiation (functional LYZ secretion), compound alone: did significantly increase Paneth cell differentiation
[2]
  primary screen hit call (SSMD and z-scored FC cutoffs in both LYZ assays): lower-effect size hit of the primary screen

## Cc1ccc(C(=O)Cn2c3c(sc2=N)CCCC3)cc1 [pifithrin-α]
[1]
  Paneth cell differentiation (functional LYZ secretion), compound alone: neither P53 inhibitor altered Paneth cell differentiation
  Paneth cell differentiation (functional LYZ secretion), in combination with KPT-330: neither P53 inhibitor altered Paneth cell differentiation

## c1ccc2c(CCNc3ccc(Nc4ccncc4)cc3)c[nH]c2c1 [serdemetan]
[1]
  Paneth cell differentiation (functional LYZ secretion), compound alone: neither P53 inhibitor altered Paneth cell differentiation
  Paneth cell differentiation (functional LYZ secretion), in combination with KPT-330: neither P53 inhibitor altered Paneth cell differentiation

## CC1=C(/C=C/C(=C/C=C/C(C)=C/C(=O)O)c2ccc(C)cc2)C(C)(C)CCC1 [SR11302]
[1]
  Paneth cell differentiation (functional LYZ secretion), compound alone: also decreases functional LYZ secretion
  Paneth cell differentiation (functional LYZ secretion), in combination with KPT-330: significantly decreases functional LYZ secretion

## CCc1c(C(=O)C(N)=O)c2c(OCC(=O)O)cccc2n1Cc1ccccc1 [Varespladib (LY315920), Varespladib, reference compound]
ENR+CD organoids [3]; 0.02 uM
  Dose.FC.CTG: 0.027 log2 fold change
ENR+CD organoids [3]; 0.04 uM
  Dose.FC.CTG: 0.113 log2 fold change
ENR+CD organoids [3]; 0.08 uM
  Dose.FC.CTG: 0.207 log2 fold change
ENR+CD organoids [3]; […]
  Dose.FC.CTG: 0.148 log2 fold change
[4]; dose 0.08 uM
  Dose.FC.LYZ.S: 0.274 log2 fold change
[4]; dose 0.40 uM
  Dose.FC.LYZ.S: 0.157 log2 fold change
[4]; dose 2.00 uM
  Dose.FC.LYZ.S: 0.176 log2 fold change
[4]; dose 10.00 uM
  Dose.FC.LYZ.S: 0.051 log2 fold change
[5]; 0.02 uM
  Dose.FC.LYZ.S: −0.138 log2 fold change
[5]; 0.04 uM
  Dose.FC.LYZ.S: −0.044 log2 fold change
[5]; 0.08 uM
  Dose.FC.LYZ.S: 0.065 log2 fold change
[5]; […]
  Dose.FC.LYZ.S: 0.102 log2 fold change
[6]; 0.02 uM
  Dose.FC.LYZ.NS: −0.091 log2 fold change
[6]; 0.04 uM
  Dose.FC.LYZ.NS: 0.015 log2 fold change
[6]; 0.08 uM
  Dose.FC.LYZ.NS: 0.090 log2 fold change
[6]; […]
  Dose.FC.LYZ.NS: 0.156 log2 fold change
ENR+CD organoids [7]; dose 0.08 uM
  Dose.FC.CTG: 0.428 log2 fold change
  Z.CTG (standard z score): 1.022
ENR+CD organoids [7]; dose 0.40 uM
  Dose.FC.CTG: 0.362 log2 fold change
  Z.CTG (standard z score): 0.864
ENR+CD organoids [7]; dose 2.00 uM
  Dose.FC.CTG: 0.152 log2 fold change
  Z.CTG (standard z score): 0.363
ENR+CD organoids [7]; dose 10.00 uM
  Dose.FC.CTG: 0.241 log2 fold change
  Z.CTG (standard z score): 0.575
[2]
  primary screen hit call (SSMD and z-scored FC cutoffs in both LYZ assays): sole hit in their respective pathway
[2]; dose 0.08 uM
  Dose.FC.LYZ.NS: 0.176 log2 fold change
  Z.LYZ.NS (standard z score): 1.533
[2]; dose 0.40 uM
  Dose.FC.LYZ.NS: 0.197 log2 fold change
  Z.LYZ.NS (standard z score): 1.719
[2]; dose 2.00 uM
  Dose.FC.LYZ.NS: 0.164 log2 fold change
  Z.LYZ.NS (standard z score): 1.430
[2]; dose 10.00 uM
  Dose.FC.LYZ.NS: 0.074 log2 fold change
  Z.LYZ.NS (standard z score): 0.643
